Patent US10039284B2, “Pesticidal compositions” (priority 2006, dated 2018)
Values joined by “and” are separate entries in the source; they are usually repeats but may differ in a detail not shown here. Equal values may be shown once.

Columns and labels:
[1] = system: Common Cutworm (Spodoptera litura); assay: whole plant or invertebrate; conditions: Compound No. 1 alone 0.02 ppm; 5th or 6th day
Method: They were diluted to a predetermined concentration with water containing a spreader (Shin-Rinoh 0.040) and subjected to the test by themselves or as a mixed liquid.
A leaf segment of cabbage was dipped for about 10 seconds in an insecticidal solution and dried in air. A wet filter paper was laid in a petri dish having a diameter of 9 cm, and the dried leaf segment of cabbage was placed thereon. 10 Second-instar larvae of common cutworm were released therein and after putting a cover, left in a constant temperature chamber at 25° C. with lightening. On the 5th or 6th day after release, dead larvae were counted, and the mortality was calculated by the following equation. Here, the insects that were moribund were counted as dead insects. Mortality (%)={(number of dead insects)/(number of surviving insects+number of dead insects)}×100
Further, the theoretical mortality (%) can be calculated from the colby's formula.

[2] = system: Green Rice Leafhopper (Nephotettix cincticeps); assay: Test on Controlling Effects Against Green Rice Leafhopper (rice seedling dip); assay type: in vivo; conditions: Compound No. 1 alone 0.4 ppm; 5th or 6th day
Excerpt: The root was wrapped with absorbent cotton wet with water, and the rice seedling was put in a test tube.

[3] = system: Green Peach Aphid (Myzus persicae); assay: Test on Controlling Effects Against Green Peach Aphid (radish leaf dip); assay type: in vivo; conditions: third day after the dipping
Method: Japanese radish leaf (cut into about 2 cm×3 cm) was put in a test tube in which water was put, and Larvae of green peach aphid were released on the leaf. […] On the third day after the dipping, dead larvae were counted, and the mortality was calculated from the following equation. Aphids that dropped from leaf or were moribund were included in the number of dead. […] Mortality (%)=(number of dead insects/number of treated insects)×100

With `CC(NC(=O)c1cc(Cl)cc(Br)c1NC(=O)c1cc(Br)nn1-c1ncccc1Cl)C1CC1` (stereo not drawn) [Compound No. 1, N-[2-bromo-4-chloro-6-[[α-methyl-(cyclopropylmethyl)amino]carbonyl]-phenyl]-3-bromo-1-(3-chloro-2-pyridyl)-1H-pyrazole-5-carboxamide] the “Mortality (%)” value [1] was 100% and 90% and 70% and 60% and 50%, the “Mortality (%)” value [2] was 30% and 50% and the “Mortality (%)” value ([3]; Compound No. 1 alone 0.8 ppm) was 8% and 11%. For the same molecule, the “Mortality (%)” value ([3]; Compound No. 1 alone 1.5 ppm) was 46% and 28%.
